Settings: Liquid; for mass density: 101.33 kPa, Vibrating tube method; for vapor or sublimation pressure: Rate of evaporation

CCCCC(=O)Oc1cc(C)cc(OC(=O)CCCC)c1 [3-methyl-5-(pentanoyloxy)phenyl pentanoate]
Settings | mass density [kg/m3] | vapor or sublimation pressure [kPa]
278.2 K | 1031.85 | –
298.1 K | 1015.28 | –
318.1 K | 998.841 | –
338.1 K | 982.449 | –
358.1 K | 966.043 | –
464 K | – | 0.708
468 K | – | 0.844
472 K | – | 1.004
476 K | – | 1.19
480 K | – | 1.406
484 K | – | 1.657
488 K | – | 1.948
492 K | – | 2.284
496 K | – | 2.671
500 K | – | 3.116
504 K | – | 3.626
508 K | – | 4.209
512 K | – | 4.875
516 K | – | 5.633
520 K | – | 6.495
524 K | – | 7.472
528 K | – | 8.579
532 K | – | 9.828
536 K | – | 11.24
540 K | – | 12.82
544 K | – | 14.6
548 K | – | 16.6
552 K | – | 18.83
556 K | – | 21.33
560 K | – | 24.11

Cc1cc(OC(C)C)cc(OC(C)C)c1 [1-methyl-3,5-bis(propan-2-yloxy)benzene]
Settings | mass density [kg/m3] | vapor or sublimation pressure [kPa]
283.2 K | 963.279 | –
303.2 K | 945.753 | –
323.2 K | 928.213 | –
343.2 K | 910.635 | –
363.2 K | 892.968 | –
419 K | – | 2.389
422 K | – | 2.713
425 K | – | 3.074
428 K | – | 3.478
431 K | – | 3.928
434 K | – | 4.428
437 K | – | 4.984
440 K | – | 5.601
443 K | – | 6.285
446 K | – | 7.041
449 K | – | 7.876
452 K | – | 8.796
455 K | – | 9.811
458 K | – | 10.93
461 K | – | 12.15
464 K | – | 13.49
467 K | – | 14.97
470 K | – | 16.58
473 K | – | 18.34
476 K | – | 20.26
479 K | – | 22.36

Cc1cc(OCC(C)C)cc(OCC(C)C)c1 [1-methyl-3,5-bis(2-methylpropoxy)benzene]
Settings | mass density [kg/m3] | vapor or sublimation pressure [kPa]
328.2 K | 908.941 | –
338.2 K | 901.02 | –
348.2 K | 893.071 | –
358.2 K | 885.087 | –
446 K | – | 2.406
449 K | – | 2.737
452 K | – | 3.108
455 K | – | 3.524
458 K | – | 3.989
461 K | – | 4.508
464 K | – | 5.086
467 K | – | 5.729
470 K | – | 6.445
473 K | – | 7.238
476 K | – | 8.118
479 K | – | 9.091
482 K | – | 10.17
485 K | – | 11.35
488 K | – | 12.66
491 K | – | 14.1
494 K | – | 15.69
497 K | – | 17.43
500 K | – | 19.33
503 K | – | 21.42
506 K | – | 23.71
509 K | – | 26.21

Cc1cc(OC(=O)C(C)(C)C)cc(OC(=O)C(C)(C)C)c1
Settings | mass density [kg/m3] | vapor or sublimation pressure [kPa]
323.1 K | 977.806 | –
333.1 K | 969.344 | –
343.1 K | 960.889 | –
353.1 K | 952.427 | –
363.1 K | 943.951 | –
456 K | – | 1.816
460 K | – | 2.127
464 K | – | 2.485
468 K | – | 2.894
472 K | – | 3.363
476 K | – | 3.898
480 K | – | 4.506
484 K | – | 5.197
488 K | – | 5.98
492 K | – | 6.865
496 K | – | 7.864
500 K | – | 8.989
504 K | – | 10.25
508 K | – | 11.67
512 K | – | 13.26
516 K | – | 15.03
520 K | – | 17
524 K | – | 19.2
528 K | – | 21.65
532 K | – | 24.36
536 K | – | 26.58

Cc1cc(OCCc2ccccc2)cc(OCCc2ccccc2)c1 [1-methyl-3,5-bis(2-phenylethoxy)benzene]
Settings | mass density [kg/m3] | vapor or sublimation pressure [kPa]
283.2 K | 921.532 | –
303.2 K | 907.265 | –
323.2 K | 893.041 | –
343.2 K | 878.854 | –
363.2 K | 864.445 | –
507 K | – | 1.602
510 K | – | 1.802
513 K | – | 2.024
516 K | – | 2.271
519 K | – | 2.543
522 K | – | 2.845
525 K | – | 3.179
528 K | – | 3.548
531 K | – | 3.954
534 K | – | 4.401
537 K | – | 4.893
540 K | – | 5.434
543 K | – | 6.027
546 K | – | 6.678
549 K | – | 7.39
552 K | – | 8.17
555 K | – | 9.022
558 K | – | 9.952
561 K | – | 10.97
564 K | – | 12.07
567 K | – | 13.28
570 K | – | 14.59
573 K | – | 15.52

CCCCOc1cc(C)cc(OCCCC)c1 [1,3-dibutoxy-5-methylbenzene]
Settings | mass density [kg/m3] | vapor or sublimation pressure [kPa]
278.2 K | 955.338 | –
298.1 K | 938.896 | –
318.1 K | 922.519 | –
338.1 K | 906 | –
358.1 K | 889.4 | –
421 K | – | 1.076
425 K | – | 1.286
429 K | – | 1.533
433 K | – | 1.821
437 K | – | 2.156
441 K | – | 2.545
445 K | – | 2.995
449 K | – | 3.515
453 K | – | 4.114
457 K | – | 4.801
461 K | – | 5.588
465 K | – | 6.487
469 K | – | 7.512
473 K | – | 8.677
477 K | – | 9.998
481 K | – | 11.49
485 K | – | 13.18
489 K | – | 15.09
493 K | – | 17.23
497 K | – | 19.63
501 K | – | 22.32
505 K | – | 25.32
509 K | – | 28.68
513 K | – | 32.42
517 K | – | 34.44
